These results are taken from PMC8021118, “Shared recognition of citrullinated tenascin-C peptides by T and B cells in rheumatoid arthritis” (JCI Insight, 2021).

For experiment [1], the system named is Synovial fluid mononuclear cells (SFMC) from HLA-DRB1*04:01 RA patients. As to the kind of experiment: FluoroSpot cytokine secretion by synovial fluid mononuclear cells stimulated with peptide. The class given is cell-based, human. The conditions noted are these: for IFN-γ secretion by SFMC (in words): 20 μg/mL peptide, 48 hours, 3-color FluoroSpot, RA n = 7, 15-mer T cell peptides; for IL-17 production by SFMC (in words) / IL-10 production by SFMC (in words): peptide stimulation 48 hours, three-color fluorospot, RA n=7.

For experiment [2], the system named is serum IgG antibodies of RA subjects. As to the kind of experiment: ELISA for serum antibodies against peptide. The class given is binding, human. The settings on record: Cys-flanked ELISA peptides. The method, then:
(§1) ELISAs were used to detect antibodies against citrullinated peptides in sera from patients in Autoantibody Cohorts 1 and 2 (Supplemental Table 2). Peptides used in the assay were synthesized by either GenScript or Pepceutical and are described in Supplemental Table 5. The ELISAs were conducted as previously described ([18], [26]). In brief, 96-well Nunc Maxisorp plates were coated with 10 μg/mL peptide in PBS, blocked with 2% BSA, and incubated with sera diluted 1:100. Bound antibodies were detected with an HRP-conjugated anti–human IgG Fc monoclonal antibody (6043HRP, Stratech). A standard curve of positive sera was used to calculate relative antibody titers in arbitrary units (AU) for each sample. The CCP2 ELISA for Autoantibody Cohort 1 was performed as by the manufacturer’s instruction (FCCP600, Axis-Shield). Cross-reactivity to cit-TNC56, cit-TNC17, or cit-TNC5 was analyzed in human sera reactive to cit-TNC56 or cit-TNC17. Sera were diluted 1:100, incubated with 1, 10, and 100 μg/mL of peptides for 2 hours and centrifuged at 10,000g for 10 minutes at room temperature, and the supernatant was added to peptide-coated plates for analysis by ELISA as described above. Positivity was defined by the cut-off of the 98th percentile of HC samples from Autoantibody Cohort 1.
Background: An ELISA detects its analyte on a solid surface through an enzyme-linked reagent.

In experiment [3] the test system is anti-cit-TNC antibodies in double-reactive RA sera. The experiment can be described thus: Cross-reactivity (peptide absorption/inhibition) ELISA. It is filed as binding, human. The conditions noted are these: for Absorption by the homologous peptide (in words): sera double-reactive for cit-TNC17 and cit-TNC56. The method, then: Sera that were double-reactive with peptides cit-TNC17 or cit-TNC56 and cit-TNC56, cit-TNC17, or cit-TNC5 were diluted 1:100, incubated with 1, 10, and 100 μg/mL of peptides for 2 hours and centrifuged at 10,000g for 10 minutes, and the supernatant then added to peptide-coated plates for analysis by ELISA. […] (B) Limited cross-reactivity between anti–cit-TNC56 and both anti–cit-TNC17 and anti–cit-TNC5. Each panel was run on a separate plate.
as §1

Experiment [4] concerns CD4+ memory T cells in peripheral blood. The experiment can be described thus: Ex vivo detection of peptide-specific memory CD4+ T cells by multiplex HLA class II tetramer staining. It is filed as cell-based, human. The conditions noted are these: for Frequencies of peptide-specific memory CD4+ T cells: mean ± SEM, SEM.
A further experiment deals with HLA-DRB1*04:01 (Homo sapiens, UniProt P01903+P01911, A100K/A169T/F76Y/I96L/K127E/L162R/M171V/N62H/P40V/Q125Y/R42H/S133A/S149N/S66Y/V115G/V209L/W38E). The experiment can be described thus: Peptide competition binding assay to HLA-DRB1*04:01.
Experiment [5] deals with CD4+ T cells in PBMC from HLA-DRB1*04:01+ subjects. The experiment can be described thus: In vitro expansion of peptide-specific CD4+ T cells from PBMC and HLA class II tetramer staining. The class given is cell-based, human. The conditions noted are these: for Responders (% in RA): RA subjects with positive in vitro response (>0.1% of CD4+ T cells tetramer+) of total tested, 10 μg/mL peptide, 14 days, n = 14, TNC44 and TNC59 n = 6; for Immunogenicity: Supplemental Table 1, ability to elicit an immune response in vitro (tetramer staining after expansion). From the text:
TNC is a large protein (2110 amino acids in length) composed of an N-terminal assembly domain, 14.5 epidermal growth factor–like repeats (EGF-L), 8 constant fibronectin type III–like repeats (FNIII), and an additional 9 alternatively spliced FNIII elements, and a C-terminal fibrinogen-like globe (FBG) ([16]). Using a previously described algorithm ([9], [24]), we scanned the entire length of the TNC monomer and identified 64 arg-containing peptides with motifs that would predict to permit binding to HLA-DRB1*04:01 in either their noncitrullinated native form, citrullinated form, or both. Based on these predictions, we synthesized the citrullinated versions of these peptides and tested their ability to bind HLA-DRB1*04:01 and to elicit CD4^+ T cell expansion in vitro. Of the peptides synthesized, 8 cit-TNC peptides bound to HLA-DRB1*04:01 with moderate to high affinity (Table 1). Among these, cit-TNC17, cit-TNC22, cit-TNC45, cit-TNC50, and cit-TNC56 were determined to be the most immunogenic, based on their ability to drive epitope-specific T cell expansion, as measured by HLA class II tetramer (Tmr) staining of peripheral blood mononuclear cells (PBMC) from HLA-DRB1*04:01^+ subjects following 2 weeks of in vitro expansion (Table 1 and Supplemental Figure 1; supplemental material available online with this article; https://doi.org/10.1172/jci.insight.145217DS1).
Recombinant HLA-DRB1*04:01 protein was produced by the BRI Tetramer Core as previously described ([56]). Soluble HLA-DRB1*04:01 monomer was purified from insect cell culture supernatants and biotinylated at a sequence-specific site using biotin ligase (Avidity) prior to dialysis into phosphate storage buffer. The biotinylated monomer was loaded with 0.2 mg/mL of peptide by incubating at 37°C for 72 hours in the presence of 2.5 mg/mL n-octyl β-D-glucopyranoside and 1 mM Pefabloc SC (Sigma-Aldrich). Peptide-loaded monomers were conjugated into Tmrs using fluorescently labeled streptavidin (Invitrogen) for 6–18 hours at room temperature at a molar ratio of 8:1.
Cryopreserved PBMCs from RA and healthy subjects were cultured at 5 × 10^6 cells/well in a 48-well plate in RPMI-1640 + 10% HPS with 10 μg/mL of peptide. IL-2 (Novartis) was added at 325 IU/mL on day 6. On day 14, cells were stained for expression of Tmr-PE, CD25 APC (BD Biosciences), and CD4 FITC (BioLegend) (Supplemental Table 8) and then run on a FACSCanto. The data were analyzed by FlowJo software version 10.

Setting [6] is: Autoantibody Cohort 1: HLA-DRB1*04:01, CCP+ RA sera (n = 17), diluted 1:100, cut-off 98th percentile of HC.
Where [7] appears, read: Autoantibody Cohort 2, CCP+ RA (n = 55).
Where [8] appears, read: Autoantibody Cohort 2, CCP– RA (n = 43).

Values joined by “and” are separate entries in the source; they are usually repeats but may differ in a detail not shown here. Equal entries are not always repeated. Where a SMILES comes first, the peptide text is derived from it. Where no end group is shown, it is not given here. [ ]: non-standard residue; d: D form. Cit = NC(=O)NCCC[C@H](N)C(=O)O

Turning to “CVSDATPDGF[Cit]LSWTADEGC [cit-TNC45, Cys-flanked citrullinated TNC45 peptide used in ELISA]”, in experiment [1], the “IFN-γ secretion by SFMC (in words)” value is given as “elicited IFN-γ secretion by SFMC”. For the same compound, the “Percentage of subjects seropositive for antibodies to peptide” value (“Percentage of subjects seropositive” below) in experiment [2] (setting [6]) is 29%.

“CPTAQVESF[Cit]ITYVPITGGC [cit-TNC50, Cys-flanked citrullinated TNC50 peptide used in ELISA]”: the “IL-17 production by SFMC (in words)” value in experiment [1] is on record as “produced”.

As for “CEYEVSLIS[Cit][Cit]GDMSSNPAC [cit-TNC17, Cys-flanked citrullinated TNC17 peptide used for detection of antibodies by ELISA]”, the “Cross-reactivity with cit-TNC5 (in words)” value in experiment [3] (double-reactive sera) was “no cross-reactivity”. Besides, the “Absorption by the homologous peptide (in words)” value in experiment [3] was “efficient”. This compound also returned a maximum inhibition in experiment [3] (serum 6, cit-TNC17 versus cit-TNC56, sera 1:100, 1, 10 and 100 μg/mL peptide, 2 hours) of 22%. The “IFN-γ secretion by SFMC (in words)” value in experiment [1] is given as “elicited IFN-γ secretion by SFMC”. The “IL-10 production by SFMC (in words)” value in experiment [1] is listed as “produced”. The “Percentage of subjects seropositive” value in experiment [2] (setting [6]) was 100%; in experiment [2] (setting [7]), 63.6% and 64%; in experiment [2] (setting [8]) it was 2.3%.

On to `CC(C)C[C@H](NC(=O)[C@H](CCCNC(N)=O)NC(=O)[C@H](Cc1ccccc1)NC(=O)CNC(=O)[C@H](CC(=O)O)NC(=O)[C@@H]1CCCN1)C(=O)N[C@@H](CO)C(=O)N[C@@H](Cc1c[nH]c2ccccc12)C(=O)N[C@H](C(=O)N[C@@H](C)C(=O)N[C@@H](CC(=O)O)C(=O)N[C@@H](CCC(=O)O)C(=O)NCC(=O)N[C@H](C(=O)N[C@@H](Cc1ccccc1)C(=O)O)C(C)C)[C@@H](C)O` [TNC45] (H-PDGF[Cit]LSWTADEGVF-OH), for which, in experiment [4] (Healthy control subjects (n=7)), the “Percentages of subjects with a detectable ex vivo response” value (“Percentages of subjects” for short) worked out at 71% and the “Frequencies of peptide-specific memory CD4+ T cells” value (from here on “Frequencies”) is listed as 2.6±1.0 /million memory CD4+ T cells. In experiment [4] (RA subjects (n=9)), the “Percentages of subjects” value was 100% and the “Frequencies” value was 22.6±6.4 /million memory CD4+ T cells. In addition, the midpoint of the response at HLA-DRB1*04:01, the EC50, lay at 17100 nM. In experiment [5], the “Responders (% in RA)” value is given as 50% and the Immunogenicity entry is recorded as “Yes”.

With `CC(C)C[C@H](NC(=O)[C@H](CCCNC(N)=O)NC(=O)[C@H](Cc1ccc(O)cc1)NC(=O)[C@H](CCCNC(N)=O)NC(=O)[C@H](CC(=O)O)NC(=O)[C@@H](N)Cc1ccccc1)C(=O)N[C@@H](CC(N)=O)C(=O)N[C@@H](Cc1ccc(O)cc1)C(=O)N[C@@H](CO)C(=O)N[C@@H](CC(C)C)C(=O)N1CCC[C@H]1C(=O)N[C@H](C(=O)NCC(=O)N[C@@H](CCC(N)=O)C(=O)N[C@@H](Cc1c[nH]c2ccccc12)C(=O)O)[C@@H](C)O` [TNC22] (H-FD[Cit]Y[Cit]LNYSLPTGQW-OH), in experiment [4] (Healthy control subjects (n=7)), the “Percentages of subjects” value was found to be 71% and the “Frequencies” value is reported as 3.0±1.2 /million memory CD4+ T cells. Further, in experiment [4] (RA subjects (n=9)), the “Percentages of subjects” value is 56% and the “Frequencies” value is listed as 3.8±1.9 /million memory CD4+ T cells. Moreover, on HLA-DRB1*04:01, the midpoint of the response, the EC50, lay at 700 nM. Also, in experiment [5], the “Responders (% in RA)” value was 46% and the Immunogenicity entry is on record as “Yes”.

As to “CEHSIQFAEMKL[Cit]PSNF[Cit]NLEG[Cit][Cit]KRC (cysteine pairing not given here) [cit-TNC5, previously published cit-TNC5 peptide, positive control in antibody ELISA, reference compound]”, the “Percentage of subjects seropositive” value in experiment [2] (setting [6]) is listed as 47%.

Take “CTPLAKFD[Cit]Y[Cit]LNYSLPTGC [cit-TNC22, Cys-flanked citrullinated TNC22 peptide used in ELISA]”: in experiment [1], the “IFN-γ secretion by SFMC (in words)” value is “elicited IFN-γ secretion by SFMC” and the “IL-10 production by SFMC (in words)” value is reported as “produced”. Moreover, in experiment [2] (setting [6]), the “Percentage of subjects seropositive” value worked out at 35%.

With `CC[C@H](C)[C@H](NC(=O)[C@H](CCCNC(N)=O)NC(=O)[C@H](Cc1ccccc1)NC(=O)[C@H](CO)NC(=O)[C@H](CCC(=O)O)NC(=O)[C@@H](N)C(C)C)C(=O)N[C@H](C(=O)N[C@@H](Cc1ccc(O)cc1)C(=O)N[C@H](C(=O)N1CCC[C@H]1C(=O)N[C@H](C(=O)N[C@H](C(=O)NCC(=O)NCC(=O)N[C@H](C(=O)O)[C@@H](C)O)[C@@H](C)O)[C@@H](C)CC)C(C)C)[C@@H](C)O` [TNC50] (H-VESF[Cit]ITYVPITGGT-OH), in experiment [4] (Healthy control subjects (n=7)), the “Percentages of subjects” value was 71% and the “Frequencies” value is reported as 1.5±0.6 /million memory CD4+ T cells. Besides, in experiment [4] (RA subjects (n=9)), the “Percentages of subjects” value amounted to 100% and the “Frequencies” value is 9.6±3.1 /million memory CD4+ T cells. For the same compound, the half-maximal effective concentration (EC50) (usually the concentration needed to bring the measured effect to its halfway point) at HLA-DRB1*04:01 was 1000 nM. Moreover, in experiment [5], the “Responders (% in RA)” value came to 50% and the Immunogenicity entry is listed as “Yes”.

For “CQGQYEL[Cit]VDL[Cit]DHGETAFC [cit-TNC56, Cys-flanked citrullinated TNC56 peptide used in ELISA]”, the “Absorption by the homologous peptide (in words)” value in experiment [3] is reported as “efficient”. Also, the maximum inhibition in experiment [3] (serum 2, cit-TNC56 versus cit-TNC17, sera 1:100, 1, 10 and 100 μg/mL peptide, 2 hours) was 24.8%; in experiment [3] (serum 2, cross-reactivity between cit-TNC56 and cit-TNC5) it was 38.7%; in experiment [3] (serum 6, citTNC56 versus cit-TNC17, sera 1:100, 1, 10 and 100 μg/mL peptide, 2 hours) it was 43%. Also, the “IFN-γ secretion by SFMC (in words)” value in experiment [1] is recorded as “elicited IFN-γ secretion by SFMC”. Further, in experiment [1], the “IL-17 production by SFMC (in words)” value was “produced”. In addition, the “Percentage of subjects seropositive” value in experiment [2] (setting [6]) was 53%; in experiment [2] (setting [7]) it was 45.5%; in experiment [2] (setting [8]), 11.6%.
